Assay results: patent publication US20230104936A1, “TRPML MODULATORS” (Casma Therapeutics, Inc., priority 2019, published 2023)

What follows are compounds tested on TFEB (assay: TFEB nuclear translocation assay, HeLa wt cells). Details: Homo sapiens, HeLa, 2 h, 2 hrs compound treatment, Table 1 does not say HeLa wt or TRPML1 KO.
Type: cell-based
In short: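 HeLa wt cells were treated with compound for 2 hrs at 37° C, then fixed in 4% PFA and immunostained for TFEB with an Alexa 488 secondary and Hoechst nuclear counterstain. Automated epifluorescence imaging at ×20 gave the ratio of nuclear TFEB intensity to a perinuclear ring region, from which AC50 was derived.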

Compound | AC50
COCC1(C)CCN(c2ccccc2NS(=O)(=O)C2=Cc3ccccc3OCC2)CC1 [Compound A-624, N-{2-[4-(methoxymethyl)-4-methylpiperidin-1-yl]phenyl}-2,3-dihydro-1-benzoxepine-4-sulfonamide] | 2.01 to 8 µM
COCC1(C)CCN(c2ccccc2NS(=O)(=O)c2ccc3c(c2)COCC3)CC1 [Compound A-625, N-{2-[4-(methoxymethyl)-4-methylpiperidin-1-yl]phenyl}-3,4-dihydro-1H-2-benzopyran-7-sulfonamide] | ≤ 2 µM
CN(C)S(=O)(=O)c1ccc(S(=O)(=O)Nc2ccccc2N2CCN(C3CCCCC3(F)F)CC2)cc1 (centres unmarked) [Compound A-626, N4-{2-[4-(2,2-difluorocyclohexyl)piperazin-1-yl]phenyl}-N1,N1-dimethylbenzene-1,4-disulfonamide] | ≤ 2 µM
COCC1(C)CCN(c2ccccc2NS(=O)(=O)Cc2cccc(C(C)(C)C)c2)CC1 [Compound A-627, 1-(3-tert-butylphenyl)-N-{2-[4-(methoxymethyl)-4-methylpiperidin-1-yl]phenyl}methanesulfonamide] | 2.01 to 8 µM
Cc1ccc(N2CCOCC2)c(NS(=O)(=O)Cc2ccccc2)c1 [Compound A-628, N-[5-methyl-2-(morpholin-4-yl)phenyl]-1-phenylmethanesulfonamide] | 2.01 to 8 µM
Cc1ccc(N2CCOCC2)c(NS(=O)(=O)Cc2ccc3c(c2)COCC3)c1 [Compound A-629, 1-(3,4-dihydro-1H-2-benzopyran-7-yl)-N-[5-methyl-2-(morpholin-4-yl)phenyl]methanesulfonamide] | 2.01 to 8 µM
COCC1(C)CCN(c2ccc(OC)cc2NS(=O)(=O)c2ccc3c(c2)CCC3)CC1 [Compound A-630, N-{5-methoxy-2-[4-(methoxymethyl)-4-methylpiperidin-1-yl]phenyl}-2,3-dihydro-1H-indene-5-sulfonamide] | ≤ 2 µM
CCOCCC1CCN(c2ccccc2NS(=O)(=O)c2ccc3c(c2)CC(C)(C)O3)CC1 [Compound A-631, N-{2-[4-(2-ethoxyethyl)piperidin-1-yl]phenyl}-2,2-dimethyl-2,3-dihydro-1-benzofuran-5-sulfonamide] | ≤ 2 µM
CC1(C)Cc2cc(S(=O)(=O)Nc3ccccc3N3CCCC4(CCCOC4)C3)ccc2O1 (centres unmarked) [Compound A-632, 2,2-dimethyl-N-(2-{2-oxa-8-azaspiro[5.5]undecan-8-yl}phenyl)-2,3-dihydro-1-benzofuran-5-sulfonamide] | ≤ 2 µM
COCC1(C)CCN(c2ccccc2NS(=O)(=O)c2cccc(C(C)(C)OC)c2)CC1 [Compound A-633, N-{2-[4-(methoxymethyl)-4-methylpiperidin-1-yl]phenyl}-3-(2-methoxypropan-2-yl)benzene-1-sulfonamide] | 2.01 to 8 µM
COC(C)(C)c1cccc(S(=O)(=O)Nc2ccccc2N2CCC3(CC2)COC(C)(C)C3)c1 [Compound A-634, N-(2-{3,3-dimethyl-2-oxa-8-azaspiro[4.5]decan-8-yl}phenyl)-3-(2-methoxypropan-2-yl)benzene-1-sulfonamide] | 2.01 to 8 µM
CC1(C)CC2(CCN(c3ccccc3NS(=O)(=O)c3ccc4c(c3)CC(C)(C)O4)CC2)CO1 [Compound A-635, N-(2-{3,3-dimethyl-2-oxa-8-azaspiro[4.5]decan-8-yl}phenyl)-2,2-dimethyl-2,3-dihydro-1-benzofuran-5-sulfonamide] | 2.01 to 8 µM
CC1(C)Cc2cc(S(=O)(=O)Nc3ccccc3N3CCC(C(C)(F)F)CC3)ccc2O1 [Compound A-636, N-{2-[4-(1,1-difluoroethyl)piperidin-1-yl]phenyl}-2,2-dimethyl-2,3-dihydro-1-benzofuran-5-sulfonamide] | ≤ 2 µM
O=S(=O)(CCO)c1ccc(S(=O)(=O)Nc2ccccc2N2CCC(c3ccc(Cl)cc3F)CC2)cc1 [Compound A-637, N-{2-[4-(4-chloro-2-fluorophenyl)piperidin-1-yl]phenyl}-4-(2-hydroxyethanesulfonyl)benzene-1-sulfonamide] | ≥ 10 µM
CC1(C)CC2(CCN(c3ccccc3NS(=O)(=O)c3ccc4c(c3)CC(C)(C)C4=O)CC2)CO1 [Compound A-638, N-(2-{3,3-dimethyl-2-oxa-8-azaspiro[4.5]decan-8-yl}phenyl)-2,2-dimethyl-1-oxo-2,3-dihydro-1H-indene-5-sulfonamide] | 2.01 to 8 µM
COCC1(C)CCN(c2ccccc2NS(=O)(=O)c2ccc3c(c2)CC(C)(C)C3=O)CC1 [Compound A-639, N-{2-[4-(methoxymethyl)-4-methylpiperidin-1-yl]phenyl}-2,2-dimethyl-1-oxo-2,3-dihydro-1H-indene-5-sulfonamide] | ≥ 10 µM
CC1(C)Cc2cc(S(=O)(=O)Nc3ccccc3N3CCCC34CCCOC4)ccc2O1 (centres unmarked) [Compound A-640, 2,2-dimethyl-N-(2-{7-oxa-1-azaspiro[4.5]decan-1-yl}phenyl)-2,3-dihydro-1-benzofuran-5-sulfonamide] | 2.01 to 8 µM
COCC1(C)CCN(c2ccccc2NS(=O)(=O)c2ccc(C(=O)C(C)C)cc2)CC1 [Compound A-641, N-{2-[4-(methoxymethyl)-4-methylpiperidin-1-yl]phenyl}-4-(2-methylpropanoyl)benzene-1-sulfonamide] | 8.01 to 9.99 µM

Compound | AC50
COCC1(C)CCN(c2ccccc2NS(=O)(=O)Cc2ccc(C)c(C)c2)CC1 [Compound A-642, 1-(3,4-dimethylphenyl)-N-{2-[4-(methoxymethyl)-4-methylpiperidin-1-yl]phenyl}methanesulfonamide] | ≤ 2 µM
COCC1(C)CCN(c2ccccc2NS(=O)(=O)c2cccc(C3CC3)c2)CC1 [Compound A-643, 3-cyclopropyl-N-{2-[4-(methoxymethyl)-4-methylpiperidin-1-yl]phenyl}benzene-1-sulfonamide] | ≤ 2 µM
COCC1(C)CCN(c2ccccc2NS(=O)(=O)c2ccc3c(c2)CCC(C(F)F)O3)CC1 (centres unmarked) [Compound A-644, 2-(difluoromethyl)-N-{2-[4-(methoxymethyl)-4-methylpiperidin-1-yl]phenyl}-3,4-dihydro-2H-1-benzopyran-6-sulfonamide] | 2.01 to 8 µM
COCC1(C)CCN(c2ccccc2NS(=O)(=O)c2ccc3c(c2)COC3)CC1 [Compound A-645, N-{2-[4-(methoxymethyl)-4-methylpiperidin-1-yl]phenyl}-1,3-dihydro-2-benzofuran-5-sulfonamide] | 8.01 to 9.99 µM
COCC1(C)CCN(c2ccccc2NS(=O)(=O)Cc2ccc(C)c(F)c2)CC1 [Compound A-646, 1-(3-fluoro-4-methylphenyl)-N-{2-[4-(methoxymethyl)-4-methylpiperidin-1-yl]phenyl}methanesulfonamide] | 2.01 to 8 µM
COCC1(C)CCN(c2ccccc2NS(=O)(=O)Cc2ccc(C(F)F)cc2)CC1 [Compound A-647, 1-[4-(difluoromethyl)phenyl]-N-{2-[4-(methoxymethyl)-4-methylpiperidin-1-yl]phenyl}methanesulfonamide] | 8.01 to 9.99 µM
COCC1(C)CCN(c2ccccc2NS(=O)(=O)Cc2cc(C)ccc2F)CC1 [Compound A-648, 1-(2-fluoro-5-methylphenyl)-N-{2-[4-(methoxymethyl)-4-methylpiperidin-1-yl]phenyl}methanesulfonamide] | ≤ 2 µM
COCC1(C)CCN(c2ccccc2NS(=O)(=O)C2(c3ccccc3)CC2)CC1 [Compound A-649, N-{2-[4-(methoxymethyl)-4-methylpiperidin-1-yl]phenyl}-1-phenylcyclopropane-1-sulfonamide] | 2.01 to 8 µM
COCC1(C)CCN(c2ccccc2NS(=O)(=O)c2ccc(C3CC3(F)F)cc2)CC1 (centres unmarked) [Compound A-650, 4-(2,2-difluorocyclopropyl)-N-{2-[4-(methoxymethyl)-4-methylpiperidin-1-yl]phenyl}benzene-1-sulfonamide] | ≤ 2 µM
COCC1(C)CCN(c2ccccc2NS(=O)(=O)c2cccc(C3CC3(F)F)c2)CC1 (centres unmarked) [Compound A-651, 3-(2,2-difluorocyclopropyl)-N-{2-[4-(methoxymethyl)-4-methylpiperidin-1-yl]phenyl}benzene-1-sulfonamide] | ≤ 2 µM
CN(C)S(=O)(=O)c1ccc(S(=O)(=O)Nc2cccc(Cl)c2N2CCCCC2)cc1 [Compound A-652, N4-[3-chloro-2-(piperidin-1-yl)phenyl]-N1,N1-dimethylbenzene-1,4-disulfonamide] | ≤ 2 µM
CN(C)S(=O)(=O)c1ccc(S(=O)(=O)Nc2ccccc2N2CCC3(CC2)COC(C)(C)C3)c(F)c1 [Compound A-653, N4-(2-{3,3-dimethyl-2-oxa-8-azaspiro[4.5]decan-8-yl}phenyl)-3-fluoro-N1,N1-dimethylbenzene-1,4-disulfonamide] | 2.01 to 8 µM
CC1(C)Cc2cc(S(=O)(=O)Nc3ccccc3N3CCC4(CCOCC4)CC3)ccc2O1 [Compound A-654, 2,2-dimethyl-N-(2-{3-oxa-9-azaspiro[5.5]undecan-9-yl}phenyl)-2,3-dihydro-1-benzofuran-5-sulfonamide] | ≤ 2 µM
COCC1(C)CCN(c2ccccc2NS(=O)(=O)c2ccc(C(C)(C)OC)cc2)CC1 [Compound A-655, N-{2-[4-(methoxymethyl)-4-methylpiperidin-1-yl]phenyl}-4-(2-methoxypropan-2-yl)benzene-1-sulfonamide] | 2.01 to 8 µM
COC(C)(C)c1ccc(S(=O)(=O)Nc2ccccc2N2CCC3(CC2)COC(C)(C)C3)cc1 [Compound A-656, N-(2-{3,3-dimethyl-2-oxa-8-azaspiro[4.5]decan-8-yl}phenyl)-4-(2-methoxypropan-2-yl)benzene-1-sulfonamide] | 2.01 to 8 µM
CC(C)C(=O)c1ccc(S(=O)(=O)Nc2ccccc2N2CCC3(CC2)COC(C)(C)C3)cc1 [Compound A-657, N-(2-{3,3-dimethyl-2-oxa-8-azaspiro[4.5]decan-8-yl}phenyl)-4-(2-methylpropanoyl)benzene-1-sulfonamide] | 8.01 to 9.99 µM
CC(C)c1ccc(S(=O)(=O)Nc2ccccc2N2CCC3(CC2)COC(C)(C)C3)cc1 [Compound A-658, N-(2-{3,3-dimethyl-2-oxa-8-azaspiro[4.5]decan-8-yl}phenyl)-4-(propan-2-yl)benzene-1-sulfonamide] | ≤ 2 µM
